In the supplement of paper PMC10307832:

Columns and labels:
Assay in all cases: relative viability (nuclei count vs DMSO), 5 days (fraction); higher = more cells survive
[1] = compound: C[C@]1(c2nc3c(C(N)=O)cccc3[nH]2)CCCN1 [Veliparib] + CC(=O)c1c(C)c2cnc(Nc3ccc(N4CCNCC4)cn3)nc2n(C2CCCC2)c1=O [Palbociclib] (partner 0.5 µM)
Summary of the method: (§1)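 A single step with final 0.05% Triton X-100, 1% formaldehyde and 1 ug/ml Hoechst fixed the cells and stained nuclei 5 days after treatment. Lung cancer cell lines in 1536-well plates had been treated by pin tool the day after seeding with one drug alone or a fixed anchor-drug dose plus five library-drug doses (not always all listed) in √10 steps, and nuclei were counted on 4× images. Relative viability is the ratio of nuclei in treated wells to nuclei in vehicle wells, taken as the median of duplicate plates.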

[2] = compound: C[C@]1(c2nc3c(C(N)=O)cccc3[nH]2)CCCN1 [Veliparib] + CCNC(=O)c1noc(-c2cc(C(C)C)c(O)cc2O)c1-c1ccc(CN2CCOCC2)cc1 [Luminespib] (partner 0.01 µM)
Summary of the method: as §1

[3] = compound: C[C@]1(c2nc3c(C(N)=O)cccc3[nH]2)CCCN1 [Veliparib] + N=C(N)NC(=N)NCCc1ccccc1 [Phenformin] (partner 250 µM)
Summary of the method: as §1

[4] = compound: COC1=CC=C(C=C1)CN2C=CC3=C2C=C(C=C3)C(=O)NO + CS(=O)(=O)CCNCc1ccc(-c2ccc3ncnc(Nc4ccc(OCc5cccc(F)c5)c(Cl)c4)c3c2)o1 [Lapatinib] (partner 2 µM)
Summary of the method: as §1

| Cell Line | relative viability ([1]; first compound 0.02 µM) | relative viability ([1]; first compound 0.6325 µM) | relative viability ([1]; first compound 2 µM) | relative viability ([2]; first compound 0.02 µM) | relative viability ([2]; first compound 0.06325 µM) | relative viability ([2]; first compound 0.2 µM) | relative viability ([2]; first compound 0.6325 µM) | relative viability ([2]; first compound 2 µM) | relative viability ([3]; first compound 0.02 µM) | relative viability ([3]; first compound 0.06325 µM) | relative viability ([3]; first compound 0.2 µM) | relative viability ([3]; first compound 0.6325 µM) | relative viability ([3]; first compound 2 µM) | relative viability ([4]; first compound 0.253 µM) | relative viability ([4]; first compound 0.8 µM) | relative viability ([4]; first compound 2.53 µM) | relative viability ([4]; first compound 8 µM) | relative viability ([1]; first compound 0.06325 µM) | relative viability ([1]; first compound 0.2 µM) | relative viability ([4]; first compound 0.08 µM) |
| --- | --- | --- | --- | --- | --- | --- | --- | --- | --- | --- | --- | --- | --- | --- | --- | --- | --- | --- | --- | --- |
| NCI-H1648 | 0.257 | 0.232 | 0.274 |  |  |  |  |  |  |  |  |  |  |  |  |  |  |  |  |  |
| NCI-H358 | 0.117 | 0.137 | 0.119 | 0.308 | 0.975 | 0.248 | 0.246 | 0.548 | 0.226 | 0.316 | 0.337 | 0.32 | 0.351 | 0.472 | 0.437 | 0.394 | 0.397 | 0.136 | 0.153 |  |
| IA-LM |  |  |  |  |  |  |  |  |  |  |  |  |  | 0.662 | 0.952 | 0.966 | 0.541 |  |  | 0.551 |
| 201T | 0.352 | 0.356 | 0.373 | 0.995 | 1.11 | 1.07 | 1.1 | 1.11 | 0.411 | 0.356 | 0.463 | 0.457 | 0.462 | 1.03 | 1.06 | 1.05 | 0.969 | 0.353 | 0.364 | 1 |
| LOU-NH91 | 0.538 | 0.574 | 0.538 | 0.339 | 0.401 | 0.352 | 0.285 | 0.342 | 0.604 | 0.457 | 0.694 | 0.639 | 0.682 | 0.745 | 0.825 | 0.733 | 0.725 | 0.546 | 0.552 | 0.561 |
| ChaGo-K-1 | 0.712 | 0.892 | 0.944 | 0.44 | 0.655 | 0.648 | 0.525 | 0.596 | 0.326 | 0.517 | 0.465 | 0.471 | 0.514 |  |  |  |  | 0.951 | 1.02 |  |
| NCI-H441 | 0.203 | 0.213 | 0.218 | 0.316 | 0.288 | 0.377 | 0.339 | 0.375 | 0.915 | 0.986 | 0.855 | 0.72 | 0.876 |  |  |  |  | 0.222 | 0.266 |  |
| ABC-1 |  | 0.694 | 0.405 |  | 0.543 | 0.377 | 0.422 | 0.524 |  | 0.227 | 0.265 | 0.233 | 0.288 | 1.13 | 1.21 | 1.3 | 1.13 |  | 0.863 | 0.618 |
| NCI-H661 | 0.382 | 0.371 | 0.384 | 0.863 | 0.931 | 0.839 | 0.785 | 0.934 | 0.299 | 0.289 | 0.25 | 0.274 | 0.264 | 0.471 | 0.471 | 0.443 | 0.402 | 0.41 | 0.4 |  |
| BEN | 0.466 | 0.5 | 0.465 | 0.161 | 0.188 | 0.308 | 0.557 | 0.148 | 0.24 | 0.251 | 0.292 | 0.253 | 0.25 | 0.552 | 0.637 | 0.78 | 0.621 | 0.491 | 0.479 | 0.552 |
| UMC-11 | 0.314 | 0.331 | 0.368 | 1.11 | 0.994 | 1.02 | 0.958 | 0.975 | 0.334 | 0.316 | 0.312 | 0.284 | 0.314 | 1.14 | 1.05 | 1.02 | 0.916 | 0.303 | 0.318 | 0.374 |
| NCI-H2023 |  | 0.346 | 0.398 | 0.746 | 0.738 | 0.696 | 0.73 | 0.73 | 0.39 | 0.417 | 0.39 | 0.384 | 0.411 | 0.792 | 0.784 | 0.864 | 0.601 | 0.329 | 0.391 | 0.155 |
| NCI-H2126 | 0.357 | 0.33 | 0.313 | 0.875 | 0.908 | 0.839 | 0.901 | 0.95 | 0.556 | 0.535 | 0.519 | 0.498 | 0.541 | 0.746 | 0.747 | 0.79 | 0.71 | 0.357 | 0.373 | 0.459 |
| EMC-BAC-2 | 0.527 | 0.486 | 0.544 | 1.24 | 1.09 | 1.28 | 1.12 | 1.21 | 0.442 | 0.532 | 0.609 | 0.484 | 0.575 | 0.884 | 0.954 | 0.906 | 0.819 | 0.487 | 0.512 | 0.613 |
| NCI-H838 | 0.22 | 0.225 | 0.224 | 0.287 | 0.32 | 0.302 | 0.295 | 0.25 | 0.576 | 0.495 | 0.564 | 0.424 | 0.628 | 1.01 | 0.98 | 1.03 | 0.873 | 0.191 | 0.235 |  |
| NCI-H322M |  | 0.514 | 0.49 |  | 0.814 | 0.915 | 0.855 | 0.848 |  | 0.641 | 0.814 | 0.724 | 0.747 | 0.628 | 0.644 | 0.293 | 0.499 | 0.491 | 0.48 |  |
| HCC-15 | 0.679 | 0.703 | 0.718 | 0.302 | 0.314 | 0.252 | 0.191 | 0.334 |  | 0.457 | 0.452 | 0.431 | 0.472 | 0.875 | 0.843 | 0.842 | 0.73 | 0.675 | 0.782 | 0.458 |
| NCI-H1395 | 0.606 | 0.565 | 0.554 | 0.586 | 0.624 | 0.648 | 0.659 | 0.542 | 0.355 | 0.421 | 0.437 | 0.393 | 0.408 | 0.851 | 0.937 | 0.93 | 0.778 | 0.58 | 0.614 | 0.674 |
| NCI-H596 |  |  |  | 0.975 | 1.02 | 1.17 | 0.889 | 0.919 | 0.633 | 0.744 | 0.809 | 0.725 | 0.747 | 1.01 | 1.25 | 1.11 | 0.999 |  |  | 0.976 |
